# What was measured:
# [1] = tested on: MyLa cells; assay: XTT cell viability assay on MyLa cells, with Bliss synergy analysis; conditions: CBD 7.3 μg/ml, CBG 3.5 μg/ml, THC 0.044 μg/ml, CBC 0.027 μg/ml (as in S4 5 + S5 6 μg/mL), 48 hours
# Description: (§1) XTT Cell Viability Assays—Cells were seeded in 96-wells plates at 10,000 cells per well in triplicates in DMEM or RPMI640 growing media. The following day, cells were treated with the different extracts, separated fractions and combinations thereof or pure compounds; or media or solvent only as control. To evaluate involvement of the CB1 and CB2 receptors, 10 μM of AM251 (a CB1 receptor inverse agonist, TOCRIS, 1117/1) or SR144528 (a CB2 receptor inverse agonist, Abcam) were added to the cells 1 hour prior to treatment. Cells were incubated for 48 hours and following XTT (2,3-bis(2-methoxy-4-nitro-5-sulfophenyl)-5-[(phenylamino)-carbonyl]-2H-tetrazolium inner salt) reduction was used to quantify viability according to manufacturer's instruction (BI, Kibbutz Beit-Haemek, Israel). Briefly, cells were incubated with XTT reagent for 2 hours at 37° C. in a humidified 5% CO2, 95% air atmosphere. Absorbance was recorded by a photometer Synergy H1 hybrid reader (BioTek) at 490 nm with 650 nm of reference wavelength. Cells survival was estimated according to the following equation: % cell survival=100×(At−Ac)(treatment)/(At−Ac)(control), where At and Ac are the absorbencies (490 nm) of the XTT colorimetric reaction in treated and control cultures, respectively, minus non-specific absorption measured at 650 nm. Absorbance of medium alone was also deducted from specific readings. […]
# [2] = tested on: HUT78 cells; assay: XTT cell viability assay on HUT78 cells; type: cell-based, human; conditions: CBD only, concentration equal to that in combined S4+S5 (7.3 μg/ml), 48 hours
# Description: as §1
smiles,measurement,setting,value
"C=C(C)[C@@H]1CCC(C)=C[C@H]1c1c(O)cc(CCCCC)cc1O [CBD, cannabidiol]",cytotoxicity of pure cannabinoids on My-La cells (in words),[1],did not induce cell death
same,cell death of HuT-78 cells,[2],50%

# From patent publication US20220040144A1, “COMPOSITIONS AND METHODS FOR THE TREATMENT OF CUTANEOUS T CELL LYMPHOMA (CTCL)” (The State of Israel, Ministry of Agriculture & Rural …, priority 2018, published 2022)
